Measurements reported in ChEMBL document CHEMBL1201862, “PubChem BioAssay data set” (2004).
Activity calls are given as the source filed them.

What was measured:
[1] = biological target: T1, Intestinal-type alkaline phosphatase (Mus musculus, UniProt P24822); experiment: PubChem AID 488875; type: functional
[2] = biological target: T2, Intestinal-type alkaline phosphatase (Homo sapiens, UniProt P09923); experiment: human intestinal alkaline phosphatase activators, dose response, biochemical, luminescence, uHTS hits (AID 463120); type: functional
[3] = biological target: T2, Intestinal-type alkaline phosphatase; experiment: activation of human intestinal alkaline phosphatase – biochemical, luminescent, uHTS hits, set 2, dose response (AID 488817); type: functional;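 further: potency of activators that raise enzyme activity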
[4] = biological target: T3, Alkaline phosphatase, tissue-nonspecific isozyme (Homo sapiens, UniProt P05186); experiment: activation of tissue-nonspecific alkaline phosphatase – biochemical, TNAP isozyme, human IAP uHTS hits, selectivity assay for human IAP activator project, dose response (AID 488886); type: functional;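 further: potency of compounds raising TNAP activity as a selectivity check on IAP activators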
T3 sequence (P05186 whole entry): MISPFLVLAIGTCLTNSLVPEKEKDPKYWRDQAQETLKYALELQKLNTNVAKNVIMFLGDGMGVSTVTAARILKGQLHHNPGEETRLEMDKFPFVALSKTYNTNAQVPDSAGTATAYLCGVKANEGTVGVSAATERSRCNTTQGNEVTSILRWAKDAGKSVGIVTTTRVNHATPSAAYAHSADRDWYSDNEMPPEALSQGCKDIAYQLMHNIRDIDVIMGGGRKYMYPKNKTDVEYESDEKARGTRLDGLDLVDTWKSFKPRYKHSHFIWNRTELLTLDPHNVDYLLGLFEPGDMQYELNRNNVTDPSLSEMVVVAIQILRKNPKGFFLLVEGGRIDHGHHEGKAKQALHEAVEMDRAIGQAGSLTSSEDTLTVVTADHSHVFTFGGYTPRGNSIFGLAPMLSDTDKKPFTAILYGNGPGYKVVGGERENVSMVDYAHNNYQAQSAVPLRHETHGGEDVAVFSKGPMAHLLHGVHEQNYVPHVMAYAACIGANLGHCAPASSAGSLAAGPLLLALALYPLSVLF

[5] = biological target: Heat shock protein HSP 90-alpha (Homo sapiens, UniProt P07900); type: functional, organism-based
[6] = system: INS1; experiment: INS-1E survival protection against cytokine death – cell-based, luminescence, retest, dose response (AID 449756); type: functional; details: Rattus norvegicus;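 further: cell death triggered by IL-1 beta plus TNF-alpha plus IFN-gamma mixture; protective hits raise ATP signal compared with cytokine alone wells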
[7] = biological target: T4, Aminopeptidase N (Plasmodium falciparum FcB1/Columbia, UniProt O96935); experiment: malaria alanyl aminopeptidase activity blockers – biochemical, fluorogenic H-Leu-NHMec substrate, 1536-well (AID 1445); design: species or system Plasmodium falciparum 3D7, 3D7
T4 sequence (O96935 whole entry): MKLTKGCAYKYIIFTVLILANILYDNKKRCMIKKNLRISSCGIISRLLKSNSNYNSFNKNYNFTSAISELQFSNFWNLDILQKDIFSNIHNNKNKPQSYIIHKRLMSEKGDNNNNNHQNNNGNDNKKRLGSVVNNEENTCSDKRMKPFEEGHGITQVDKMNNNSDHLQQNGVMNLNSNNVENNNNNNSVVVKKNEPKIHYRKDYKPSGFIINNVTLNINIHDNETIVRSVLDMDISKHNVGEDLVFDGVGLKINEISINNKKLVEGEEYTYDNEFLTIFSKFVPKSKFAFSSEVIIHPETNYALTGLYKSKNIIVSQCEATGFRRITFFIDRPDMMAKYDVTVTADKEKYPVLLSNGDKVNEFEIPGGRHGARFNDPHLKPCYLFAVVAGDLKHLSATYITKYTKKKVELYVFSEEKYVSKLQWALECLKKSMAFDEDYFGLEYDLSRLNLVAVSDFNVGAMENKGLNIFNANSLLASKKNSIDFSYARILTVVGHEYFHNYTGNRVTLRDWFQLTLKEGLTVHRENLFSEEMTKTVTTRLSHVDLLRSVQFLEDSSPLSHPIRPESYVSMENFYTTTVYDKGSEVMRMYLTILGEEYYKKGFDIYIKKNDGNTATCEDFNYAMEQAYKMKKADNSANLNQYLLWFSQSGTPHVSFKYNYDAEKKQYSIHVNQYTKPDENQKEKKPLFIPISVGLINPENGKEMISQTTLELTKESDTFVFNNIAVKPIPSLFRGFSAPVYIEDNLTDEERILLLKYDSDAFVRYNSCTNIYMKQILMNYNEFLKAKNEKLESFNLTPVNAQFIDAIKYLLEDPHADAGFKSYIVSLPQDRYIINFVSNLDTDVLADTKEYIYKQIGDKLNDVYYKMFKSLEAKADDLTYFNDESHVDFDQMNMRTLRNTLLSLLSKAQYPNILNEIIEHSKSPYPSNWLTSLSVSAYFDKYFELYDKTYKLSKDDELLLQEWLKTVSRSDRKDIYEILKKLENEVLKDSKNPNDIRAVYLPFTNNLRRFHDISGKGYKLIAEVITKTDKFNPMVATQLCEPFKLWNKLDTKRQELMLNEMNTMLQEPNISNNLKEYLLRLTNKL

[8] = biological target: Lysosomal acid glucosylceramidase (Homo sapiens, UniProt P04062); experiment: Dose response cell-based high throughput screening assay to identify enhancers of beta-glucosidase activity. [Related pubchem assays: 784 ]; type: functional
[9] = biological target: Aspartyl aminopeptidase (Plasmodium falciparum 3D7, UniProt Q8I2J3)
[10] = biological target: Procathepsin L (Homo sapiens, UniProt P07711)
[11] = biological target: Troponin, cardiac muscle (Homo sapiens, UniProt P19429+P45379+P63316); experiment: Fluorescence-based biochemical high throughput dose response assay for activators of the calcium sensitivity of cardiac Regulated Thin Filaments (RTF). [Related pubchem assays (depositor defined):AID493008, AID493018, AID504382, AID504383]; type: protein-complex assay
[12] = biological target: Acyl-homoserine lactone acylase PvdQ (Pseudomonas aeruginosa (strain LESB58), UniProt Q9I194); experiment: PvdQ acylase enzyme activity blockers – biochemical, fluorescence, plate reader and imaging, cherry-picks, dose response (AID 493231)
[13] = biological target: T5, Cytochrome P450 2C19 (Homo sapiens, UniProt P33261); experiment: qHTS Assay for Inhibitors and Substrates of Cytochrome P450 2C19. [Related pubchem assays: 410 ]; type: ADME; details: read-out: Potency
[14] = biological target: Cytochrome P450 2D6 (Homo sapiens, UniProt P10635); experiment: qHTS Assay for Inhibitors and Substrates of Cytochrome P450 2D6. [Related pubchem assays: 410 ]; type: ADME; details: read-out: Potency
[15] = biological target: T6, Voltage-gated N-type calcium channel alpha-1B subunit/Amyloid beta A4 precursor protein-binding family A member 1 (Homo sapiens, UniProt Q00975+Q02410); type: protein assay
[16] = HPDE-C7 pancreatic duct cell viability loss – fluorescence, HTS (AID 430); type: functional, cell-based; details: Homo sapiens
[17] = biological target: T7, Estrogen receptor (Homo sapiens, UniProt P03372);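 further: potency for inhibiting coactivator peptide recruitment to the receptor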
T7 sequence (P03372 whole entry): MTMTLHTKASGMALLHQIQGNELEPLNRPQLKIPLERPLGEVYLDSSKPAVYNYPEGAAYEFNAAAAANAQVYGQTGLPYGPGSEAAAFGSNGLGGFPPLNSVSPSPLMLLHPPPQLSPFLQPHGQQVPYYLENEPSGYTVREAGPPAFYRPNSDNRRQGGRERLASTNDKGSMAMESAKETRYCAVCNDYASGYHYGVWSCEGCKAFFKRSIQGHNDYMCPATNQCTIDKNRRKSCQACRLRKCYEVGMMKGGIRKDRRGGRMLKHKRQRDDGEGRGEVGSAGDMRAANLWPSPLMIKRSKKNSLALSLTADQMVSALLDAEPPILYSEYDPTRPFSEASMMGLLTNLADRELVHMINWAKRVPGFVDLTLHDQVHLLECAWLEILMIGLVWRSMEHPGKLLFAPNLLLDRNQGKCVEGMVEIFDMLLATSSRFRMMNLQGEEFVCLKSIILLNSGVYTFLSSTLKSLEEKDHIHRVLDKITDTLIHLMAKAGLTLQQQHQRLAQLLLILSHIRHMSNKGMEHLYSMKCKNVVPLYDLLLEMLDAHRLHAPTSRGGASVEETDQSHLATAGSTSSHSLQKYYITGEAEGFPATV

[18] = biological target: T6, Voltage-gated N-type calcium channel alpha-1B subunit/Amyloid beta A4 precursor protein-binding family A member 1; type: protein assay; remark: listed apart in the source
[19] = viability loss of HPDE-C7K cells – cell-based, fluorescence, HTS, primary screen (AID 431); type: functional; details: Homo sapiens
[20] = biological target: Ephrin type-A receptor 4 (Mus musculus, UniProt Q03137); experiment: EphA4 ligand-binding antagonists – biochemical, colorimetric, mouse EphA4, primary screen (AID 689); type: functional
[21] = biological target: Induced myeloid leukemia cell differentiation protein Mcl-1 (Homo sapiens, UniProt Q07820); type: functional
[22] = biological target: G-protein coupled receptor 55 (Homo sapiens, UniProt Q9Y2T6); experiment: inhibition of LPI-stimulated GPR55 beta-arrestin translocation – imaging, U2OS, beta-arrestin-GFP, LPI agonist, primary screen (AID 2013); type: functional;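 further: antagonist potency measured as reduced agonist-driven arrestin aggregation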
[23] = biological target: T5, Cytochrome P450 2C19; experiment: Cytochrome panel assay with activity outcomes. Panel member name: p450-cyp2c19 Compounds with AC50 equal or less than 10 uM are considered active; type: functional
[24] = biological target: Cytochrome P450 2C9 (Homo sapiens, UniProt P11712)
[25] = system: Streptococcus sp. 'group A'; experiment: Streptococcus pyogenes SK(-)GAS viability under kanamycin – luminescence, BacTiterGlo, confirmation, counter-screen for streptokinase expression inhibitor project, dose response (AID 1900); type: functional, organism-based
[26] = biological target: T8, Streptokinase A (Streptococcus pyogenes serotype M1, UniProt P10520); experiment: viability-normalized secreted streptokinase activity reduction – plasminogen activation absorbance, OD405, dose response (AID 1914); type: functional, Streptococcus pyogenes M1 GAS;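 further: secreted streptokinase activity via plasminogen activation per viability signal from cell pellet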
T8 sequence (P10520 whole entry): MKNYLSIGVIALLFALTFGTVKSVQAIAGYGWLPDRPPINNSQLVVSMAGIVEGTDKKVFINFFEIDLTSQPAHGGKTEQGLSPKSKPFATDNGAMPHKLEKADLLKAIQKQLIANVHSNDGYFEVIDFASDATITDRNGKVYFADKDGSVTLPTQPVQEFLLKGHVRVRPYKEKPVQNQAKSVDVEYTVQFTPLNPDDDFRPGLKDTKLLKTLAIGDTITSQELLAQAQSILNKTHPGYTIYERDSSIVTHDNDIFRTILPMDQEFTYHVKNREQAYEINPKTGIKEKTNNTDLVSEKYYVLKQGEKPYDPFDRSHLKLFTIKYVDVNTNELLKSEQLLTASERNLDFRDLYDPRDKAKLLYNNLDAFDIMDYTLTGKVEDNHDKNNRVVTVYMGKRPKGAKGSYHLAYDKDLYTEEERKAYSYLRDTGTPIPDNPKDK

[27] = system: Streptococcus; experiment: GAS UMAA2166 growth inhibition – luminescence, BacTiterGlo, counter-screen for streptokinase expression inhibitor project, dose response (AID 1915); type: functional, organism-based;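 further: potency for reduction of bacterial viability or growth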
[28] = biological target: T2, Intestinal-type alkaline phosphatase; experiment: activation of human intestinal alkaline phosphatase – biochemical, dose response (AID 488873); type: functional
[29] = biological target: T1, Intestinal-type alkaline phosphatase; experiment: PubChem AID 488785; type: functional
[30] = biological target: T3, Alkaline phosphatase, tissue-nonspecific isozyme; experiment: TNAP enzyme inhibition by screening hits, dose response, selectivity assay for mouse IAP inhibitor project, biochemical, human TNAP, uHTS hits (AID 488906); type: functional

T1 sequence (P24822 whole entry): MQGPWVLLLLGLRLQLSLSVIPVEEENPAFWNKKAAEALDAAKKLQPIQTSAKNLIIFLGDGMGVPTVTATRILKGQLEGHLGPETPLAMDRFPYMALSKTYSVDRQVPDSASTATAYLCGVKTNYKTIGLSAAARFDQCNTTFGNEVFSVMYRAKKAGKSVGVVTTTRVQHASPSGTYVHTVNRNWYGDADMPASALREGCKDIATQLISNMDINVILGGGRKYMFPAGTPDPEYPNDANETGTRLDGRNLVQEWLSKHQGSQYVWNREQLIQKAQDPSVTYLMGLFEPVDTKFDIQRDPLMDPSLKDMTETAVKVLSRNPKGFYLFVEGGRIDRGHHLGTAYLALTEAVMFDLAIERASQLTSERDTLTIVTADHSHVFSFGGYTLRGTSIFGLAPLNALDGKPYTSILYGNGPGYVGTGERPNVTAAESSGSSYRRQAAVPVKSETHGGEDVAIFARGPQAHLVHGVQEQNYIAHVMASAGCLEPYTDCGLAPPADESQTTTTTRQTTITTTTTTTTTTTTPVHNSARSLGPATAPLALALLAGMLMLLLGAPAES
T2 sequence (P09923 whole entry): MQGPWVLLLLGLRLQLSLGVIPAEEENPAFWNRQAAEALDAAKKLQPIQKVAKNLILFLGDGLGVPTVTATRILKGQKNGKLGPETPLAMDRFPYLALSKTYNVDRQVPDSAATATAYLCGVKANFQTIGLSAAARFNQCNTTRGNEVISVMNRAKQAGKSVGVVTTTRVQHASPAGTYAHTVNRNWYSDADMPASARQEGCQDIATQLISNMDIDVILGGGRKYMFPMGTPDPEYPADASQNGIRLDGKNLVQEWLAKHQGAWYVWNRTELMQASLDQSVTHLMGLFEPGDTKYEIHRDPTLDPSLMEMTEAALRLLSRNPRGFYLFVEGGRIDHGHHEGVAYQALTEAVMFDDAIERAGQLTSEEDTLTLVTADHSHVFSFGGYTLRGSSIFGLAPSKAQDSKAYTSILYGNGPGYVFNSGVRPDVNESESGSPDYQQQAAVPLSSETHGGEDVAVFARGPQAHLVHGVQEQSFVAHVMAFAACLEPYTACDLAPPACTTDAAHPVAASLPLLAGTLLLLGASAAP
T5 sequence (P33261 whole entry): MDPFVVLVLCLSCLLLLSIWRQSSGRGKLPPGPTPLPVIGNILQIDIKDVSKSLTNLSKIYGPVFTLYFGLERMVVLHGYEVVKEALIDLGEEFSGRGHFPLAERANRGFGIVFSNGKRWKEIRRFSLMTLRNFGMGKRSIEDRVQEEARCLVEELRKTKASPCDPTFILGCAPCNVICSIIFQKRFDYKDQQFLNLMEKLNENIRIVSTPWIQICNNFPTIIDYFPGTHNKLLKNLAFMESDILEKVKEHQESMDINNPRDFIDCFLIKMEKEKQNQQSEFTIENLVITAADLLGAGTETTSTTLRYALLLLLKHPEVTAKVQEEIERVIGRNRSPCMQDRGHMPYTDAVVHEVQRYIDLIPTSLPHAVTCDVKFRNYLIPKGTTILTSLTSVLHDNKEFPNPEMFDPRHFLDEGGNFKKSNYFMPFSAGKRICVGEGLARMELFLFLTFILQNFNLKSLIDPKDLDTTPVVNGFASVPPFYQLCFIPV
T6 sequence (Q00975 whole entry): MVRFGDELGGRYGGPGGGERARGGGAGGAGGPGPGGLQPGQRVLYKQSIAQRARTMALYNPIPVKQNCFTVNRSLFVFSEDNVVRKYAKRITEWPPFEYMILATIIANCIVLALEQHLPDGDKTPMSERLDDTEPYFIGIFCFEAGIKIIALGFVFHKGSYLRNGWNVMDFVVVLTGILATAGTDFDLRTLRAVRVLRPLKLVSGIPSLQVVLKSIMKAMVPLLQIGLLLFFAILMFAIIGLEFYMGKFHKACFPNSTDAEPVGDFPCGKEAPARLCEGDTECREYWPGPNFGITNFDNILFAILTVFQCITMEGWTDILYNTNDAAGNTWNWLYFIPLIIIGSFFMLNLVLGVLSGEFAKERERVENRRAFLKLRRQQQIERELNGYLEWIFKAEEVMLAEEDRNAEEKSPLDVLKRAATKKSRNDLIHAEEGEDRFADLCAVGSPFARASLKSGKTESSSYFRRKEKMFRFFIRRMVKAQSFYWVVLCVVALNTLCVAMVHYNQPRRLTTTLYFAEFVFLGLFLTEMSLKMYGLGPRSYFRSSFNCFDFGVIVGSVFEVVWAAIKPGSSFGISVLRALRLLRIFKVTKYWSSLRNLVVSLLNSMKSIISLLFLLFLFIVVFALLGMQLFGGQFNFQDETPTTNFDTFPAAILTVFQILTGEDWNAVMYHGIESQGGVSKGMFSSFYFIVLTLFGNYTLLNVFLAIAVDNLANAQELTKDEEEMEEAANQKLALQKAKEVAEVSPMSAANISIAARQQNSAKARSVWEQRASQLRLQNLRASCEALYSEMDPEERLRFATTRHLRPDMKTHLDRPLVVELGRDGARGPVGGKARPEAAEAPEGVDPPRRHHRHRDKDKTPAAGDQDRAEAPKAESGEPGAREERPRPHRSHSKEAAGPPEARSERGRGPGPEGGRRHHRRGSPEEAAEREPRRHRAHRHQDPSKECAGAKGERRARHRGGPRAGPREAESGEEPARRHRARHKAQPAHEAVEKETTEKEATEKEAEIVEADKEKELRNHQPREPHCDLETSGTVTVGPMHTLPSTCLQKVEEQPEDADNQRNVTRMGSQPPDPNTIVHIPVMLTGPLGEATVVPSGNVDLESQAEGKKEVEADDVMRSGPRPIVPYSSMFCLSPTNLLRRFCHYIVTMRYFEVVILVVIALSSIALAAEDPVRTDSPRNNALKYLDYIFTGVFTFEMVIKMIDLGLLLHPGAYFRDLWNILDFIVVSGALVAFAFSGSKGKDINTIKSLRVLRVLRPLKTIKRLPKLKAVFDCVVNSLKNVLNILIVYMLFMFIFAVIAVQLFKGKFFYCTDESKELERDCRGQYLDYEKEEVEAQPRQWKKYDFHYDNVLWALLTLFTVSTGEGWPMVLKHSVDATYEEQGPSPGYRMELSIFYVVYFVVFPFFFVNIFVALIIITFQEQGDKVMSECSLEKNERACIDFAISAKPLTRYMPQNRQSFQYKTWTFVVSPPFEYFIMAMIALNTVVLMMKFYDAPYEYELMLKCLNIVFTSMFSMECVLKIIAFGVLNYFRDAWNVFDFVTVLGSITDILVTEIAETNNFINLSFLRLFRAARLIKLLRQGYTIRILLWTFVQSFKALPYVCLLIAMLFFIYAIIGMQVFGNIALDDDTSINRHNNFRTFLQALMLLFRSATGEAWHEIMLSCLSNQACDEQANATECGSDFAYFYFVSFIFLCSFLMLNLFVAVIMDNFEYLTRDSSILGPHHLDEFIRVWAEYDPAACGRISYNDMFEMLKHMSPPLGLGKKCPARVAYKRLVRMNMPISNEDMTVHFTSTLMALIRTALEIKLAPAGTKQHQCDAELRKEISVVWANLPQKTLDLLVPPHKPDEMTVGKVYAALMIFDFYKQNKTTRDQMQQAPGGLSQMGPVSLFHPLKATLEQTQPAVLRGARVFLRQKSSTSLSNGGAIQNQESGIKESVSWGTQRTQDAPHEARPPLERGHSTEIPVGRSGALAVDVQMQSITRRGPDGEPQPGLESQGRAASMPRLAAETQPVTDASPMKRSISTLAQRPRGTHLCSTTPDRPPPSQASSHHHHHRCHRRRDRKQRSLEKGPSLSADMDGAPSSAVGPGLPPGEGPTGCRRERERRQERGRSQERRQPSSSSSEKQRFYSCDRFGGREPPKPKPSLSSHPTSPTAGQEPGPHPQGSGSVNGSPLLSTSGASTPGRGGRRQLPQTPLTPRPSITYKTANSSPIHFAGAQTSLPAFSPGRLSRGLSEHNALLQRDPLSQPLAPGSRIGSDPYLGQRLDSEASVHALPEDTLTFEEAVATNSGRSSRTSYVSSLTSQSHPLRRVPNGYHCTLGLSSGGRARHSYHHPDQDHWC
T6 sequence (Q02410 whole entry): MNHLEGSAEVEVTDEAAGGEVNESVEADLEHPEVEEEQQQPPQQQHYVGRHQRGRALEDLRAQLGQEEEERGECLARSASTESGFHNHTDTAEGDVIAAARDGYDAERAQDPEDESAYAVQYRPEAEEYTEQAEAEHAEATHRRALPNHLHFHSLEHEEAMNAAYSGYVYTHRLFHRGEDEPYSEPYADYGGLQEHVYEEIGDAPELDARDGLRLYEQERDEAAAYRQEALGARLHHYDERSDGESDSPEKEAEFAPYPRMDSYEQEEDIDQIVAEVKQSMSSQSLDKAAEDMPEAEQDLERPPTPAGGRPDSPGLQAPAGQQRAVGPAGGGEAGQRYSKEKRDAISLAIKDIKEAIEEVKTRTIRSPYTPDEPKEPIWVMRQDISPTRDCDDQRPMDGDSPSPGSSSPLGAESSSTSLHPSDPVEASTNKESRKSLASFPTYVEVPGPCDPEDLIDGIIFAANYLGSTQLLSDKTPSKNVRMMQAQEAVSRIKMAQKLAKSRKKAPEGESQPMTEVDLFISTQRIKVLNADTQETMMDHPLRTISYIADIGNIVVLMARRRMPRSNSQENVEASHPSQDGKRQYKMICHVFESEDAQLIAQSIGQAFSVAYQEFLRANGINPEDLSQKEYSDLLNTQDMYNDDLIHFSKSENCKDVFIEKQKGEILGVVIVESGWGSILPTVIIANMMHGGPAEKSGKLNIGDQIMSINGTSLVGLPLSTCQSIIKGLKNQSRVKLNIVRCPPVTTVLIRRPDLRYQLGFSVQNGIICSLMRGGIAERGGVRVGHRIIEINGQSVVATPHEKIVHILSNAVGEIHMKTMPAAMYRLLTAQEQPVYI
Induced myeloid leukemia cell differentiation protein Mcl-1, sequence (Q07820 whole entry): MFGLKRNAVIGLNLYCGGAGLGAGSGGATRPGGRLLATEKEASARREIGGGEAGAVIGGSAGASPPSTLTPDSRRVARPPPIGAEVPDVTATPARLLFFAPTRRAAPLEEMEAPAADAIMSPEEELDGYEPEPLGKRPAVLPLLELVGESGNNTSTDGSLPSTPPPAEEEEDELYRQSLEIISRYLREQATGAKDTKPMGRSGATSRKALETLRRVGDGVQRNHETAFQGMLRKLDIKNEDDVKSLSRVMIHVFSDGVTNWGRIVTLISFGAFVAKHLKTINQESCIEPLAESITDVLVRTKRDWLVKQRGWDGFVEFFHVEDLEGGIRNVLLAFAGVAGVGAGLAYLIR

For `CC1=NN(c2nc3ccccc3[nH]2)C(=O)/C1=C/N(C)C`, the EC50 [1] was > 100 µM (inactive), the EC50 [2] was 12.3 µM (active) and the EC50 [3] was 23.2 µM (active). For the same molecule, the EC50 [4] was 11.4 µM (active), the AC50 [5] was 6.12 µM (active) and the AC50 [6] was 2.48 µM (active).

For `CC(=O)Nc1cccc(NC(=O)C2CCCN2C(=O)Nc2ccc(C)cc2)c1` (centres undefined), the IC50 [7] was 61.3 µM (active) and the EC50 [8] was > 50 µM (not active).

For `COc1ccc(C(=O)n2cnnc2N)cc1`, the IC50 [9] was 2.51 µM (active) and the IC50 [10] was > 59.6 µM (not active).

For `Cn1cc(/C=C2\SC(=S)N(NC(=O)c3ccccc3)C2=O)c2ccccc21`, the EC50 [11] was 1.47 µM (active).

With `Cc1cc(C)nc(N(C#N)Cc2ccc([N+](=O)[O-])cc2)n1` the AC50 [12] was > 100 µM (inactive).

With `CCOC(=O)[C@]1(C(NC(=O)OC)c2cccc(F)c2)CCCC1=O` (some centres undefined) the AC50 [13] was 3.98 µM (inconclusive) and the AC50 [14] was 3.98 µM (inconclusive).

For `CSc1nc(NCCOCCO)c2sc3nc(-c4ccco4)c4c(c3c2n1)CCC4`, the IC50 [15] was 14.7 µM (active), the EC50 [16] was 8.85 µM (active) and the IC50 [17] was > 50 µM (not active). The IC50 [18] was 1.98 µM (active), the EC50 [19] was 6.86 µM (active) and the IC50 [20] was > 100 µM (not active). The IC50 [21] was 1.92 µM (active).

In the case of `Cc1ccc(-c2nc(SCC(=O)N(C)C3CCS(=O)(=O)C3)[nH]c2-c2ccc(C)cc2)cc1` (centres undefined), the IC50 [22] is reported as 3.83 µM (active).

In the case of `COc1cccc2cc(NC(=O)C3CCCCC3)c(=O)oc12`, the EC50 [8] is reported as > 50 µM (not active), the AC50 [23] is reported as 39.8 µM (inconclusive) and the AC50 [24] is reported as “inconclusive”.

In the case of `NS(=O)(=O)c1ccc(-c2ccc(/C=C3\SC(=S)N(C4CCS(=O)(=O)C4)C3=O)o2)cc1` (centres undefined), the EC50 [25] is reported as 7.36 µM (active), the EC50 [26] is reported as > 150 µM (not active) and the IC50 [21] is reported as 1.85 µM (active). For the same molecule, the EC50 [27] was 32.2 µM (active), the EC50 [28] was 29.4 µM (active) and the IC50 [29] was > 100 µM (inactive). The IC50 [30] was 1.32 µM (active).

With `CCOC(=O)c1ccc(NC(=O)c2ccco2)cc1` the AC50 [12] was 57.2 µM (active).

With `CCOc1cc(C(=O)NC(=S)Nn2cnnc2)cc(OCC)c1OCC` the IC50 [9] was 0.921 µM (active) and the IC50 [10] was > 59.6 µM (not active).

For `Cc1nn(C)c(C(=O)NN=C(S)NCc2ccccc2)c1Cl`, the EC50 [1] was > 100 µM (inactive), the EC50 [2] was 14.8 µM (active) and the EC50 [3] was 17 µM (active). The EC50 [4] was 17.3 µM (active).
